Several values for one entry are separate records, joined by “and”; a condition that tells them apart may be missing. Equal entries are not always repeated.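 Dose response: 5 concentrations. Exposure: 48 h. Format: 96-well plates. Endpoint: linear interpolation; highest concentration if not reached. GI50 = concentration required for 50% inhibition of growth. TGI marks complete inhibition of growth.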
Experiments:
Assay in all cases: NCI-60 cell line screen, 48 h
A498 renal = system: A498 renal
HS 578T breast = system: HS 578T breast
MCF7 breast = system: MCF7 breast
NCI-H460 lung = system: NCI-H460 lung
NCI-H522 lung = system: NCI-H522 lung
OVCAR-3 ovarian = system: OVCAR-3 ovarian
OVCAR-5 ovarian = system: OVCAR-5 ovarian
SF-268 CNS = system: SF-268 CNS
SNB-75 CNS = system: SNB-75 CNS
SR leukemia = system: SR leukemia

| Compound | TGI (A498 renal) | GI50 (HS 578T breast) | TGI (HS 578T breast) | GI50 (MCF7 breast) | TGI (MCF7 breast) | GI50 (NCI-H460 lung) | TGI (NCI-H460 lung) | GI50 (NCI-H522 lung) | TGI (NCI-H522 lung) | GI50 (OVCAR-3 ovarian) | TGI (OVCAR-3 ovarian) | GI50 (OVCAR-5 ovarian) | TGI (OVCAR-5 ovarian) | GI50 (SF-268 CNS) | TGI (SF-268 CNS) | GI50 (SNB-75 CNS) | TGI (SNB-75 CNS) | GI50 (SR leukemia) | TGI (SR leukemia) | GI50 (A498 renal) |
| --- | --- | --- | --- | --- | --- | --- | --- | --- | --- | --- | --- | --- | --- | --- | --- | --- | --- | --- | --- | --- |
| CC(C)NCCCCCNc1cc(O)cc2cccnc12 | > 100 µM | > 42.5 µM | > 100 µM | 18.7 µM | > 100 µM | > 100 µM | > 100 µM | 3.94 µM | > 100 µM | 2.43 µM | 9.37 µM | > 100 µM | > 100 µM | > 100 µM | > 100 µM | > 58.2 µM | > 100 µM | > 100 µM | > 100 µM |  |
| CCCC(=O)Nc1ncnc2c1ncn2C1OC2COP(=O)(O)OC2C1OC(=O)CCC (centres undefined) | 92.8 µM |  | > 1000 µM | > 1000 µM | > 1000 µM |  |  | > 1000 µM | > 1000 µM | > 1000 µM | > 1000 µM | > 1000 µM | > 1000 µM | > 1000 µM | > 1000 µM | > 1000 µM | > 1000 µM |  | > 1000 µM |  |
| CCCN(CCC)c1ccc(/C=N/NC(=O)c2cccnc2)cc1 | 22.3 µM | 22 µM | 87.1 µM | 20.2 µM | > 100 µM | 30.3 µM | > 100 µM | 16.6 µM | 46.8 µM | 20.1 µM | 45.3 µM | 38 µM | > 100 µM | 31.2 µM | > 100 µM | 22 µM | 68.1 µM | 6.82 µM | > 100 µM | 10.2 µM |
| COc1ccc(NC(=O)CC(=O)n2nc(-c3ccccc3)c(N=Nc3ccccc3C)c2-c2ccccc2)cc1 | 52.6 µM |  | 35.6 µM |  | > 100 µM |  | 53.5 µM |  | 47.8 µM |  | 33.3 µM |  | > 100 µM |  | 35.7 µM |  | 36.6 µM |  | > 100 µM |  |
| CCNC(=O)c1ccc2c(c1)nc(-c1ccc(Cl)cc1)n2-c1cc(C(C)(C)C)[nH]n1 | 6.53 µM | 2.58 µM | 7.6 µM | 2.68 µM | 10.5 µM | 3.53 µM | 12.5 µM | 2.7 µM | 9.6 µM | 2.49 µM | 7.77 µM | 5.91 µM | 40.1 µM | 3.42 µM | 15.4 µM | 2.17 µM | 12 µM | 1.06 µM | 9.32 µM | 2.24 µM |
| NCC(=O)NC(CO)C(=O)O (centres undefined) | > 100 µM |  | > 100 µM |  | > 100 µM |  | > 100 µM |  | > 100 µM |  | > 100 µM |  | > 100 µM |  | > 100 µM |  | > 100 µM |  |  |  |
| COc1cccc2cc(-c3nc(C4CCC(C(=O)O)CC4)n4ncnc(N)c34)[nH]c12 (centres undefined) | 0.407 µM and 0.365 µM | 0.135 µM and 0.11 µM | 0.627 µM and 0.979 µM | 0.155 µM and 0.22 µM | > 35.7 µM | 0.253 µM and 0.445 µM | 17.7 µM and > 10 µM | 0.0712 µM and 0.209 µM | 1.92 µM and > 8.47 µM | 0.253 µM and 0.394 µM | 4.27 µM and > 7.87 µM | 0.289 µM and 0.658 µM | > 100 µM | 0.294 µM and 0.301 µM | 19.5 µM and > 10 µM | 0.0952 µM and 0.152 µM | 1.03 µM and 1.3 µM | 0.295 µM and 0.31 µM | > 36.3 µM | 0.0677 µM and 0.0601 µM |
| O=[N+]([O-])c1ccc(NN=C2c3ccccc3Cc3ccccc32)c([N+](=O)[O-])c1 | > 100 µM |  | > 80.4 µM |  | > 100 µM |  | > 100 µM |  | 7.97 µM |  | 5.19 µM |  | > 100 µM |  | > 100 µM |  | 75.1 µM |  | 11.5 µM |  |
| O=C1CCCC(=O)C1C(=O)c1ccc(C(F)(F)F)cc1[N+](=O)[O-] | > 100 µM | > 100 µM | > 100 µM | > 100 µM | > 100 µM | > 100 µM | > 100 µM | > 100 µM | > 100 µM | > 100 µM | > 100 µM | > 100 µM | > 100 µM | > 100 µM | > 100 µM | > 100 µM | > 100 µM | > 100 µM | > 100 µM | > 100 µM |
| COc1cc(C2C(C(=O)OCc3ccccc3)=C(C)NC(C)=C2C(=O)OCc2ccccc2)cc(OC)c1OC | > 100 µM | 5.61 µM | > 100 µM | 2.66 µM | > 100 µM | 3.54 µM | > 100 µM | 3.57 µM | > 100 µM | 4.99 µM | > 100 µM |  |  | 5.17 µM | > 100 µM | 4.69 µM | > 100 µM | 2.22 µM | > 100 µM | 1.75 µM |
| CC(=O)Nc1ccc(S(=O)(=O)c2ccc(NC(C)=O)cc2)cc1 | > 100 µM | > 100 µM | > 100 µM | > 100 µM | > 100 µM | > 100 µM | > 100 µM | > 100 µM | > 100 µM | 61.8 µM | > 100 µM | > 100 µM | > 100 µM |  |  |  |  | > 100 µM | > 100 µM | 81.4 µM |
| COc1cc([N+](=O)[O-])c(OC)cc1-c1nc2n(c1/C(N)=N/C(=N)N)CCS2 | > 100 µM | 32.5 µM | > 100 µM | > 100 µM | > 100 µM | 70.1 µM | > 100 µM | 47.7 µM | > 100 µM | 33.5 µM | > 100 µM | > 100 µM | > 100 µM | 45.8 µM | > 100 µM | 6.76 µM | > 100 µM |  |  | > 100 µM |
| Cc1ccc(C(CC(=O)c2ccccc2)C(C(=O)c2ccccc2)C(c2ccc(C)cc2)C2C(=O)NC(=S)NC2=O)cc1 (centres undefined) | > 50 µM | 21.7 µM | > 50 µM | 10.6 µM | > 50 µM | 6.66 µM | > 50 µM | 7.87 µM | 30.2 µM | 19 µM | > 50 µM | 31 µM | > 50 µM | 16.8 µM | > 50 µM | > 50 µM | > 50 µM |  |  | 18.3 µM |
| COc1ccc(C(=O)C(CC2C(=O)CC(C)(C)C(C(=O)C(=O)Nc3c(C)cccc3C)C2=O)c2ccc(OC)cc2)cc1 (centres undefined) |  |  | > 100 µM |  | > 100 µM |  | > 100 µM |  | > 100 µM |  | > 100 µM |  | > 100 µM |  | > 100 µM |  | > 100 µM |  | 91.9 µM |  |
| Cc1ccc(C)c(N2C(=O)C(=O)c3c(C)ccc(C)c32)c1 |  |  | 63.4 µM |  | 59 µM |  | > 100 µM |  | 38.6 µM |  | 34.1 µM |  | > 100 µM |  | 78.2 µM |  | > 100 µM |  | 37.7 µM |  |
| C=C(CN(C)C)C(=O)c1ccc(OC)cc1 | 25.6 µM |  | > 87 µM |  | 21.4 µM |  | 44.6 µM |  |  |  | 10.4 µM |  | 29.8 µM |  | 50.5 µM |  | 39.9 µM |  | 5.27 µM |  |
| Cc1cc2c(=O)c3ccccc3oc2c(C#N)c1C | > 100 µM |  | > 100 µM |  | > 100 µM |  | > 100 µM |  |  |  |  |  | > 100 µM |  | > 100 µM |  | > 100 µM |  | > 100 µM |  |
| COc1ccc(C(=O)c2cc(OC)c(OC)c(OC)c2)cc1/C=C/C(=O)c1ccc2c(c1)OCO2 | 16.7 µM | 4.56 µM | > 100 µM | 0.381 µM | > 100 µM | 3.09 µM | > 100 µM |  |  | 1.96 µM | 7.24 µM | 2.64 µM | 8.19 µM | 2.95 µM | > 100 µM | 3.11 µM | 15.6 µM |  |  | 2.43 µM |
| CNc1ccc(C(=O)CC(O)CCC(C)C2OC(=O)CC(O)CC(=O)CC(O)CC(O)CC(O)CC(O)CC3(O)CC(O)C(C(=O)NCCc4ccccn4)C(CC(OC4OC(C)C(O)C(N)C4O)/C=C/C=C/C=C/C=C\C=C/C=C/C=C/C2C)O3)cc1 (centres undefined) | 0.464 µM | 0.489 µM | 2.61 µM | 1.25 µM | 10.4 µM | 0.238 µM | > 17.8 µM | 4.21 µM | > 50 µM | 0.643 µM | 2.16 µM | 0.323 µM | 2.02 µM | 0.141 µM | 0.439 µM | > 50 µM | > 50 µM |  |  | 0.136 µM |
| O=C(Nc1cccc(-n2cc(-c3ccncc3)c(-c3ccc(O)c(Cl)c3)n2)c1)c1ccc(N2CCOCC2)c(C(F)(F)F)c1 | > 50 µM | 0.548 µM | > 50 µM | 2.03 µM | > 50 µM | 1.82 µM | > 50 µM | 2.22 µM | > 50 µM |  |  | > 50 µM | > 50 µM | > 50 µM | > 50 µM | 0.745 µM | > 50 µM | 1.05 µM | > 50 µM | > 50 µM |
| COc1cc(CCNc2nc3cc(N)cc(N)c3nc2-c2ccccc2)cc(OC)c1 | 14.3 µM | 2.43 µM | 5.85 µM | 1.71 µM | 3.89 µM | 3.25 µM | 10.9 µM |  |  | 1.08 µM | 2.35 µM | 1.83 µM | 3.69 µM | 1.74 µM | 3.72 µM | 1.37 µM | 2.85 µM | 0.354 µM | 2.22 µM | 3.95 µM |
| N#C/C(=C\c1ccc([N+](=O)[O-])s1)c1nc2cc(Br)ccc2s1 | > 100 µM | 0.804 µM | 9.28 µM | 0.305 µM |  | 0.286 µM | 0.845 µM | 0.206 µM | 0.539 µM | 0.248 µM | 0.733 µM |  |  | 0.468 µM | > 100 µM | 0.355 µM |  | 0.0856 µM | 1.77 µM | 8.05 µM |
